# Patent publication US20170239351A1, “Therapeutic Combinations of a BTK Inhibitor, a PI3K Inhibitor, a JAK-2 Inhibitor, a PD-1 Inhibitor, and/or a PD-L1 Inhibitor” (Acerta Pharma B.V., priority 2014, published 2017)
# Experiments:
# [1] = biological target: CYP3A4 (Homo sapiens, UniProt P08684); assay: In vitro CYP metabolism and CYP interaction studies; assay type: in vitro ADME
# [2] = system: pancreatic cancer; assay: KPC pancreatic cancer model (spontaneously appearing tumors); assay type: in vivo, KPC mice; conditions: 15 mg/kg BID oral
# Description: The KPC mouse model recapitulates many of the molecular, histopathologic, and clinical features of human disease (Westphalen and Olive, Cancer J. 2012, 18, 502-510). Combination therapy with gemcitabine was also evaluated in this model. Mice were enrolled after identification of spontaneously appearing tumors in the pancreas that were ≧100 mm^3 (as assessed by high-resolution ultrasonography).
# [3] = system: KPC derived mouse pancreatic cancer cells; assay: Orthotopic pancreatic cancer model (KPC-derived cells); assay type: in vivo, C57BL/6 mice; conditions: 15 mg/kg oral of each drug
# Description: Orthotopic pancreatic cancer models in mice are clinically relevant, benefit from tissue site-specific pathology, and allow for study of metastasis. Qiu and Su, Methods Mol. Biol. 2013, 980, 215-223. A cell line derived from KrasG12D; Trp53R172H; Pdx1-Cre (KPC) mice was orthotopically implanted into the head of the pancreas after 35 passages. Based on the mice background from where the cell lines were generated, 1×10^6 cells were injected in C57BL/6 mice. Throughout the experiment, animals were provided with food and water ad libitum and subjected to a 12-h dark/light cycle. Animal studies were performed in accordance with the U.S. Public Health Service “Guidelines for the Care and Use of Laboratory Animals” (IACUC). After euthanization, pancreatic tumors were dissected out, weighed and single cell suspensions were prepared for flow cytometry analysis.
# Results of the experiments are shown in FIG. 110, which illustrates tumor growth suppression in the orthotopic pancreatic cancer model. The statistical p-value (presumption against null hypothesis) is shown for each tested single active pharmaceutical ingredient and for the combination against the vehicle.
# In this study, KrasG12D;Trp53R172H; Pdx1-Cre (KPC) derived mouse pancreatic cancer cells (10,000 cells) were injected into the pancreases of 24 female mice. After one week of expansion, drug treatment was started in mice developing pancreatic tumors.
# Single cell suspensions from tumor samples were prepared as follows. Mouse tumor tissue was collected and stored in PBS/0.1% soybean trypsin inhibitor prior to enzymatic dissociation. […] Following surface staining, samples were acquired on a BD Fortessa and analyzed using FlowJo (Treestar) software.
# [4] = system: ID8 ovarian cancer; assay: ID8 syngeneic orthotropic ovarian cancer murine model; assay type: in vivo, mice
# Excerpt: Human ovarian cancer models, including the ID8 syngeneic orthotropic ovarian cancer model and other animal models, are described in Fong and Kakar, J. Ovarian Res. 2009, 2, 12; Greenaway, et al., Gynecol. Oncol. 2008, 108, 385-94; Urzua, et al., Tumour Biol. 2005, 26, 236-44; Janat-Amsbury, et al., Anticancer Res. 2006, 26, 3223-28; Janat-Amsbury, et al., Anticancer Res. 2006, 26, 2785-89. […] The results of the study are shown in FIG. 100, FIG. 101, FIG. 102, FIG. 103, FIG. 104, FIG. 105, FIG. 106, and FIG. 107.
# Each cohort consisted of 12 mice. Every two weeks mice are injected with luciferin, and tumor growth was monitored using the Xenogen system (Caliper Life Sciences, PerkinElmer, Hopkinton, Mass., USA). Tumor size was measured by calculated flux.
# The experiments were performed as described in Example 7.
# [5] = system: NK cells; assay: Antibody-stimulated NK cell degranulation (CD107a), flow cytometry; assay type: cell-based, human; conditions: DHL-4 target cells
# [6] = system: CD4^+ T cells; assay: Th17 and Treg development from CD4+ T cells; assay type: cell-based
# Description: Enriched CD4^+ T cells are plated on 24-well culture dishes that have been precoated 2 hr with 250 μL anti-TCRβ (0.5 μg/mL) plus anti-CD28 (5 μg/mL) at 37° C. in PBS. The cells are then supplemented with media containing BTK inhibitors along with the skewing cytokines as indicated in the following. The Th17 and Treg cultures are grown for 4 days before analysis. The cells are maintained for an additional 3 days with skewing cytokines (Th17; 20 ng/mL IL-6, 0.5 ng/mL TGF-β, 5 μg/mL IL-4, 5 μg/mL IFN-γ and Treg; 0.5 ng/mL TGF-β, 5 μg/mL IL-4, 5 μg/mL IFN-γ) and are supplemented with IL2 as a growth factor.
# [7] = system: B cell lymphoma; assay: Veterinary clinical trial in canine B cell lymphoma; assay type: in vivo, companion dogs
# Excerpt: Canine B cell lymphoma exists as a pathological entity that is characterized by large anaplastic, centroblastic or immunoblastic lymphocytes with high proliferative grade, significant peripheral lymphadenopathy and an aggressive clinical course. While some dogs respond initially to prednisone, most canine lymphomas progress quickly and must be treated with combination therapies, including cyclophosphamide, vincristine, doxorubicin, and prednisone (CHOP), or other cytotoxic agents. In their histopathologic features, clinical course, and high relapse rate after initial treatment, canine B cell lymphomas resemble diffuse large B cell lymphoma (DLBCL) in humans. Thus, responses of canine B cell lymphomas to experimental treatments are considered to provide proof of concept for therapeutic candidates in DLBCL.
# Enrollment has completed for both arms.
# Intra-subject dose escalation was allowed. Six of the 11 dogs that initiated at 2.5 or 5 mg/kg once daily were escalated and completed the study with dosages of 10 mg/kg twice daily. Among all the dose cohorts, 8 dogs had shrinkage of target lesions >20%; the best tumor responses were between 45-49% reduction in the sum of target lesions in two dogs. […] CR were defined as disappearance of all evidence of disease per evaluator judgment, and absence of new lesions. Vali, et al., Vet. Comp. Oncol. 2010, 8, 28-37. […]
# [8] = Brain penetration study; conditions: in vivo
# Chain of CYP3A4 (P08684 whole entry): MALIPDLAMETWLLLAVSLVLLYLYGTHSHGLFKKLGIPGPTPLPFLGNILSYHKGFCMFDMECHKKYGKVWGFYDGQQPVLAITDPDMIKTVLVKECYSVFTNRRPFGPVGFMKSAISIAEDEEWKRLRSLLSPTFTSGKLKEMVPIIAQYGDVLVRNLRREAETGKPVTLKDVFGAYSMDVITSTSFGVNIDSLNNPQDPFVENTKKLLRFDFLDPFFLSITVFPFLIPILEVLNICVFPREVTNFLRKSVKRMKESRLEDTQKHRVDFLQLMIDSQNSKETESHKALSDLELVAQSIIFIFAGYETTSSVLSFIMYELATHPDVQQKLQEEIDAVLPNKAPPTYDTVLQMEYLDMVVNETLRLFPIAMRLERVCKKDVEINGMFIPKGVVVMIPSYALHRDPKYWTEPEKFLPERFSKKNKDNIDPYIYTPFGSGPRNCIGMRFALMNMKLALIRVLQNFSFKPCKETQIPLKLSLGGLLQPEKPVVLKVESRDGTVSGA
smiles,measurement,setting,value
"CC#CC(=O)N1CCC[C@H]1c1nc(-c2ccc(C(=O)Nc3ccccn3)cc2)c2c(N)nccn12 [Formula (XVIII), (S)-4-(8-amino-3-(1-(but-2-ynoyl)pyrrolidin-2-yl)imidazo[1,5-a]pyrazin-1-yl)-N-(pyridin-2-yl)benzamide]",CYP responsible for loss of parent drug,[1],metabolized by CYP3A4
same,drug-drug interaction potential via CYP enzymes,[1],very unlikely to cause clinical drug-drug interactions
same,CD8 cells in tumor tissues,[2],significant increase
same,"immunosuppressive TAMs, MDSCs and Tregs in tumor tissues",[2],significantly reduced
same,survival at day 14,[2],6/6
same,immunosuppressive tumor associated myeloid cells and Tregs,[3],reduce immunosuppressive tumor associated myeloid cells and Tregs
same,tumor volume versus vehicle,[3],statistically significant reductions in tumor volume
same,cytolytic CD8^+ T cells,[4]; 15 mg/kg/BID oral,increase
same,immunosuppressive B cells in tumor-bearing mice,[4]; 15 mg/kg/BID oral,significant reduction
same,immunosuppressive tumor associated Tregs,[4]; 15 mg/kg/BID oral,significant reduction
same,ID8 ovarian cancer growth,"[4]; Formula (XVIII) 15 mg/kg BID oral, antibody 150 μg",impairs ID8 ovarian cancer growth
same,inhibition of rituximab-stimulated NK cell degranulation,[5],< 2%
same,effect on Th17 and Treg development,[6],no adverse effects on Th17 and Treg development
same,complete responses (CR),"[7]; Arm 1: 21 dogs, Arm 2: 10 dogs",not observed
same,Median time to best response,"[7]; dog, in vivo",7 days
same,brain penetration (blood-brain barrier),[8],crosses the blood-brain barrier
